Source: paper PMC4114559, “Pigment Dispersing Factor Regulates Ecdysone Biosynthesis via Bombyx Neuropeptide G Protein Coupled Receptor-B2 in the Prothoracic Glands of Bombyx mori” (PLoS ONE, 2014)
Entries after “also recorded” stand apart in the source; their conditions may differ. Numbered stars: 1 amine (or outer) side, 2 acyl side, 3 side chain; on linkers, the order of the positions; unused ones are H or OH. Bridge positions count the residues as written; N and C are the ends. Square brackets hold non-standard residues; d marks the D form. Ends that are not written are not given here. Peptide text beside a SMILES is read from it. I, II: the chains in the order shown. Actinocin(9to1) = Cc1c2oc3c(C)ccc(C(=O)[*:1])c3nc-2c(C(=O)[*:2])c(N)c1=O; NMeV = CN[C@H](C(=O)O)C(C)C; Sar = CNCC(=O)O

Experiments:
PGs of B. mori = experiment: Effect of inhibitors on induced ecdysone biosynthesis in cultured PGs; assay type: cell-based, Bombyx mori; details: 15 min pre-treatment, 3 hours; for effect of inhibitor on PDF-induced ecdysone biosynthesis: n = 10
Description: (§1) Dissected PGs were rinsed with Grace's insect culture medium (Gibco) and pre-cultured individually in 100 µl medium in 96-well plates (BD Falcon) at 25°C for 30 min. To evaluate the effect of extracellular Ca^2+ on ecdysone biosynthesis, lepidopteran saline and lepidopteran saline using NaCl as a replacement for CaCl2 were used. For the pharmacological analysis, the PG was pre-treated with the inhibitor for 15 min during the pre-culture period. Following this treatment, the PG was cultured in the desired conditions for the desired period (Ecdysone assay: 3 hours; cAMP assay: 30 min; and Protein phosphorylation assay: 15 min). Actinomycin D, H-89 and cycloheximide (CHX) were purchased from Sigma; Rapamycin was purchased from Santa Cruz Biotechnology; and LY294002 was purchased from Merck. H-89 was dissolved in water. The other inhibitors were dissolved in DMSO. A 1% volume of the appropriate inhibitor was added to the culture medium.
Prior to ecdysteroids extraction, the 100 µl of cultured medium was diluted with equal volume of MilliQ water. After that, 400 µl of 1-butanol was added to the sample, vortexed for 3 min and centrifuged at 1,000×g for 10 min at 4°C. The 1-butanol phase was transferred to a new tube, and the solvent was evaporated using a centrifugal concentrator. The dried samples were re-dissolved in 50 µl of pure methanol for the following analysis. Quantification of ecdysteroids using LC-MS/MS was performed as previously described with some modifications. Ecdysteroids were separated by reverse-phase HPLC using a PEGASIL C8 column (3 µm, 2×100 mm, Senshu-pak, Senshu-kagaku) with gradient elution of acetonitrile (ACN)/water at a flow rate of 0.2 mL min^−1 (0–3 min (ACN = 10–75%), 3–20 min (75–85%), 20–25 min (100%)), on a Prominence UFLC system (Shimadzu). The separated ecdysteroids were quantified with the QTRAP5500 MS/MS system (AB SCIEX) using MRM mode. For the quantitative analysis, standard curves were generated with concentrations of 0.98–1000 ng/ml.
Because PDF stimulated the increase in intracellular cAMP levels in the PGs, the activation of PKA is likely involved in the PDF signaling pathway. One of the pathways downstream of active PKA is cAMP response element-binding protein (CREB)-mediated transcriptional regulation. First, we evaluated the effect of PDF on the transcript level of known ecdysone biosynthetic enzymes (Nvd, Nm-g, Spo, Phm, Dib and Sad) using Q-PCR. […] Therefore, de novo transcription was not required for PDF-mediated ecdysone biosynthesis for at least 3 hours. […]
(§2) Figure 4 Signaling pathways involved in PDF-induced ecdysone biosynthesis. […] The transcript levels of nvd, nm-g, spo, phm, dib and sad were quantified with Q-PCR. […] Statistically significant differences were evaluated by Student's t-test (***P<0.001, **P<0.01). […]

4E-BP = experiment: p-4E-BP level in cultured PGs (Western blot); assay type: cell-based, Bombyx mori; details: PI3K inhibitor LY294002 50 µM; immunoblotting
Description: as §1, with “Actinomycin D, H-89 and cycloheximide (CHX) were purchased from Sigma; Rapamycin was purchased from Santa Cruz Biotechnology; and LY294002 was purchased from Merck. H-89 was dissolved in water. The other inhibitors were dissolved in DMSO. A 1% volume of the appropriate inhibitor was added to the culture medium.” left out
Dissected PGs were pre-cultured in Grace's culture medium for 30 min, then cultured with or without PDF or PTTH for 15 min. The cultured PGs were sonicated in 50 mM Tris-HCl (pH 6.8) with protease inhibitor cocktail (Complete, Roche) and phosphatase inhibitor cocktail (Wako), lysed in 1x SDS sample buffer excluding 2-mercaptoethanol (2ME) and bromophenol blue (BPB), and the protein concentration was measured using the BCA protein assay kit (Pierce). […]
as §2

PGs = details: cited from earlier work
Description: In many cases, a single hormone has multiple functions regulating many physiological phenomena. Thus, both the regulation of receptor expression in the target tissue and the regulation of hormone release are important for the hormone to only affect the target tissue at the appropriate time. In the case of PTTH, the titer of the hormone in the hemolymph is clearly correlated with the ecdysteroid titer ... || In insects, neuropeptide hormones affect the target tissue via humoral and neuronal pathways. […] The increase in intracellular cAMP is thought to be regulated by Ca^2+ signaling in the PTTH signaling pathway, [37]. […] PDF sig ... || (+ 1 further places)

For `C[C@@H]1C[C@@H]([C@H](O)CC2CC(=O)NC(=O)C2)C(=O)[C@@H](C)C1` [CHX, cycloheximide], the “effect of inhibitor on PDF-induced ecdysone biosynthesis” value (PGs of B. mori; translation inhibitor CHX 0.2 mM) was “clearly inhibited ecdysone biosynthesis”.
For `O=S(=O)(NCCNC/C=C/c1ccc(Br)cc1)c1cccc2cnccc12` [H-89], the “effect of inhibitor on PDF-induced ecdysone biosynthesis” value (PGs of B. mori; PKA inhibitor H-89 0.1 mM) was “clearly inhibited ecdysone biosynthesis; also recorded: inhibited PDF-induced ecdysone biosynthesis”.
With `O=c1cc(N2CCOCC2)oc2c(-c3ccccc3)cccc12` [LY294002, reference compound] the “effect of inhibitor on ecdysone biosynthesis induced by PDF and PTTH” value (PGs of B. mori; PI3K inhibitor LY294002 50 µM, n = 3 and 4) was “clearly suppressed the ecdysone biosynthesis” and the “effect of inhibitor on phosphorylation of 4E-BP induced by PDF and PTTH” value (4E-BP) was “clearly suppressed the ecdysone biosynthesis and phosphorylation of 4E-BP induced by PDF and PTTH”.
With `Cc1c2oc3c(C)ccc(C(=O)N[C@@H]4C(=O)N[C@H](C(C)C)C(=O)N5CCC[C@H]5C(=O)N(C)CC(=O)N(C)[C@@H](C(C)C)C(=O)O[C@@H]4C)c3nc-2c(C(=O)N[C@@H]2C(=O)N[C@H](C(C)C)C(=O)N3CCC[C@H]3C(=O)N(C)CC(=O)N(C)[C@@H](C(C)C)C(=O)O[C@@H]2C)c(N)c1=O` [actinomycin D] (I: T[dV]P[Sar][NMeV] / II: T[dV]P[Sar][NMeV]; ester I:1-I:C, II:1-II:C; linker I:N-II:N via Actinocin(9to1)) the “effect of inhibitor on PDF-induced ecdysone biosynthesis” value (PGs of B. mori; transcription inhibitor ActD 10 µM) was “did not suppress PDF-induced ecdysone biosynthesis”.
For `CCCC(=O)Nc1ncnc2c1ncn2[C@@H]1O[C@@H]2COP(=O)(O)O[C@H]2[C@H]1OC(=O)CCC` [dbcAMP, dibutyryl cyclic AMP, reference compound], the “ecdysone biosynthesis in vitro (literature)” value (PGs; cell-permeable cAMP analog, in vitro, ref [27], [37]) is listed as “can induce ecdysone biosynthesis in vitro” and the “effect of a transcription inhibitor on PTTH- and dbcAMP-induced ecdysone biosynthesis (literature)” value (PGs; ref [39]) is listed as “ecdysone biosynthesis was suppressed by a transcription inhibitor”.
For “diapause hormone: neuronal pathway-mediated tropic hormone (TDMKDESDRGAHSERGALWFGPRL; ends and bridges not checked; UniProt P09971 24-47, looked up) [reference compound]”, the EC50 (PGs; neuronal pathway-mediated tropic hormone, ref [32], read-out: EC50 of tropic hormone (literature)) is given as 270 nM.
